The source of these data is US5300491A, “Treatment of protozoal infection” (priority 1992, dated 1994).

The test system of series [1] is Trichomonas vaginalis. As to the kind of experiment: Trichomonas vaginalis assay of other divalent metal salts of bacitracin (MIC). The series is classed as cell-based. On the procedure: (§1) All isolates were treated with either bacitracin or zinc bacitracin.
(§2) Prior to being diluted with the medium, the bacitracins were initially solubilized in water to 250 mg/ml. The zinc salt was solubilized in acidified water (60 μl HC1/ml). Duplicate plates of each isolate were prepared. one set of plates was exposed to an aerobic environment; and, the second set was exposed to an anaerobic environment. An Oxoid HP 11 anaerobic gas chamber and BR 38 gas generating kit were used to produce the anaerobic environment.
The procedure of Example IV was repeated, substituting bacitracin salts of the following metals for zinc bacitracin: nickel, cadmium, cobalt, manganese, copper and iron. The MLCs of the bacitracin salts were out of range. However, the MICs indicate that, with the exception of ferrous bacitracin, complexation with a divalent metal salt enhanced the activity of bacitracin.

Series [2] deals with Giardia lamblia. It counts as cell-based. The settings on record: Portland isolate; anaerobic; 24 hours; two lines of values. Here is the method:
A Portland isolate of G. lamblia was treated with bacitracin and zinc bacitracin according to the procedure of Example IV. An Oxoid HP 11 anaerobic gas chamber and BR 38 gas generating kit were used to produce an anaerobic environment. […] The parasites were incubated in the presence of the treating reagent for 2 4 hours. The viability of the parasites was based on morphology and motility.

Series [3] relates to E. histolvtica. The settings on record: fifty South African patients; 2.4 g daily for 5 days; cited from earlier work.
Series [4] concerns Tritrichomonas gallinae. As to the kind of experiment: Tritrichomonas gallinae assay (MLC). It counts as cell-based. The following applies: isolate GH85; anaerobic. On the procedure: A single T. gallinae isolate was collected and treated with bacitracin or zinc bacitracin in accordance with the procedure of Example IV. Duplicate plates of the isolate were prepared. one plate was exposed to an aerobic environment. The second plate was exposed to an anaerobic environment.

The test system of series [5] is Trichomonas vaginalis. As to the kind of experiment: Trichomonas vaginalis assay (MLC, aerobic and anaerobic). It counts as cell-based. Here is the method:
as §1, §2

For series [6], the system named is T. foetus. The settings on record: cited from earlier work; for side effects: in vivo.

In brackets after ≈: the same amount, converted by molar mass. Several values for one entry are separate records, joined by “and”; a condition that tells them apart may be missing. Equal entries are not always repeated. Where two headings read alike, the source gives them in different places. A value given as a limit tells only on which side of the number the result lay.

Broadly, the MIC is the smallest concentration in the dilution series that meets the test's criterion for growth inhibition. For Nickel Bacitracin, the MIC in series [1] (T. vaginalis isolate 1910) came out at 2500 µg/mL; in series [1] (T. vaginalis isolate UCH1), 1250 µg/mL.
The corresponding values for Manganese Bacitracin are 1260 µg/mL and 150 µg/mL.
On to `Cc1ncc([N+](=O)[O-])n1CCO` [Metronidazole], for which the “MLC (first of the two columns per drug)” value in series [2] is under 1 µg/mL. For the same molecule, the “MLC (second of the two columns per drug)” value in series [2] is 2 µg/mL and < 1 µg/mL. In addition, in series [3], the “treatment failure with persistent disease” value was 55%. For the same molecule, the MLC was 2 µg/mL (≈ 11.7 µM) in series [4]; 40 µg/mL (≈ 234 µM) in series [5] (isolate 1031, metronidazole-sensitive, aerobic); 4 µg/mL (≈ 23.4 µM) in series [5] (isolate 1031, metronidazole-sensitive, anaerobic); 20 µg/mL (≈ 117 µM) in series [5] (isolate 1043, metronidazole-sensitive, aerobic); under 1 µg/mL in series [5] (isolate 1043, metronidazole-sensitive, anaerobic); under 10 µg/mL in series [5] (isolate 1044, metronidazole-sensitive, aerobic). In addition, the MLC in series [5] (isolate 1044, metronidazole-sensitive, anaerobic) was under 1 µg/mL; in series [5] (isolate 1064, metronidazole-sensitive, anaerobic) it was under 1 µg/mL; in series [5] (isolate 1065, metronidazole-sensitive, aerobic) it was under 10 µg/mL; in series [5] (isolate 1065, metronidazole-sensitive, anaerobic), under 1 µg/mL; in series [5] (isolate 1165, metronidazole-sensitive, aerobic), 40 µg/mL (≈ 234 µM); in series [5] (isolate 1165, metronidazole-sensitive, anaerobic) it was under 1 µg/mL. Moreover, the MLC in series [5] (isolate 1910, metronidazole-sensitive, aerobic) turned out to be 40 µg/mL (≈ 234 µM); in series [5] (isolate 1910, metronidazole-sensitive, anaerobic), 2 µg/mL (≈ 11.7 µM); in series [5] (isolate 6950, metronidazole-sensitive, aerobic), 20 µg/mL (≈ 117 µM); in series [5] (isolate 6950, metronidazole-sensitive, anaerobic) it was 2 µg/mL (≈ 11.7 µM); in series [5] (isolate 89532.2, metronidazole-insensitive, aerobic), 200 µg/mL (≈ 1170 µM); in series [5] (isolate 89532.2, metronidazole-insensitive, anaerobic), 2 µg/mL (≈ 11.7 µM). Also, the MLC is 80 µg/mL (≈ 467 µM) in series [5] (isolate 90576, metronidazole-insensitive, aerobic); 2 µg/mL (≈ 11.7 µM) in series [5] (isolate 90576, metronidazole-insensitive, anaerobic); 200 µg/mL (≈ 1170 µM) in series [5] (isolate CDC85, metronidazole-insensitive, aerobic); 20 µg/mL (≈ 117 µM) in series [5] (isolate CDC85, metronidazole-insensitive, anaerobic); 200 µg/mL (≈ 1170 µM) in series [5] (isolate IR78, metronidazole-insensitive, aerobic); 4 µg/mL (≈ 23.4 µM) in series [5] (isolate IR78, metronidazole-insensitive, anaerobic). Also, the MLC in series [5] (isolate PHLS289, metronidazole-insensitive, aerobic) came out at 60 µg/mL (≈ 351 µM); in series [5] (isolate PHLS289, metronidazole-insensitive, anaerobic) it was 8 µg/mL (≈ 46.7 µM); in series [5] (isolate STH-1, metronidazole-insensitive, aerobic), 60 µg/mL (≈ 351 µM); in series [5] (isolate STH-1, metronidazole-insensitive, anaerobic) it was 8 µg/mL (≈ 46.7 µM); in series [5] (isolate UCH-1, metronidazole-sensitive, aerobic), 40 µg/mL (≈ 234 µM); in series [5] (isolate UCH-1, metronidazole-sensitive, anaerobic) it was 4 µg/mL (≈ 23.4 µM). Further, the MLC in series [5] (isolate UCH-2, metronidazole-sensitive, aerobic) was under 10 µg/mL; in series [5] (isolate UCH-2, metronidazole-sensitive, anaerobic) it was 2 µg/mL (≈ 11.7 µM); in series [5] (isolate UCH-M1, metronidazole-sensitive, aerobic) it was 20 µg/mL (≈ 117 µM); in series [5] (isolate UCH-M1, metronidazole-sensitive, anaerobic), 4 µg/mL (≈ 23.4 µM); in series [5] (isolate UOB-1, metronidazole-sensitive, aerobic), 20 µg/mL (≈ 117 µM); in series [5] (isolate UOB-1, metronidazole-sensitive, anaerobic), under 1 µg/mL.
Copper Bacitracin: the MIC in series [1] (T. vaginalis isolate 1910) amounted to 1250 µg/mL; in series [1] (T. vaginalis isolate UCH1), 2500 µg/mL.
Taken in the same sequence, the figures for Cobalt Bacitracin were 1250 µg/mL and 1250 µg/mL.
The corresponding values for Ferrous Bacitracin are over 10000 µg/mL and over 10000 µg/mL.
On to `Cc1ncc([N+](=O)[O-])n1C` [dimetridazole], for which the side effects entry in series [6] (iv) was “respiratory difficulty, ataxia and lung collapse”; in series [6] (po), “rumen stasis and anorexia”. The effectiveness result in series [6] (multiple oral doses) and in series [6] (single intravenous administration) was “moderately effective” in each case.
Turning to Cadmium Bacitracin, the values for the MIC in series [1] (T. vaginalis isolate 1910) and in series [1] (T. vaginalis isolate UCH1) were 150 µg/mL and 310 µg/mL, respectively.
